The target in this assay is CK2A1 (CK2α/β) (Homo sapiens, UniProt P68400). As to the kind of experiment: CK2 kinase assay, CK2A1 (CK2α/β). Type of assay: biochemical. The conditions noted are these: Table A; read-out: CK2A1 (CK2α/β) (IC50).
Sequence of CK2A1 (CK2α/β) (P68400 whole entry, species assumed): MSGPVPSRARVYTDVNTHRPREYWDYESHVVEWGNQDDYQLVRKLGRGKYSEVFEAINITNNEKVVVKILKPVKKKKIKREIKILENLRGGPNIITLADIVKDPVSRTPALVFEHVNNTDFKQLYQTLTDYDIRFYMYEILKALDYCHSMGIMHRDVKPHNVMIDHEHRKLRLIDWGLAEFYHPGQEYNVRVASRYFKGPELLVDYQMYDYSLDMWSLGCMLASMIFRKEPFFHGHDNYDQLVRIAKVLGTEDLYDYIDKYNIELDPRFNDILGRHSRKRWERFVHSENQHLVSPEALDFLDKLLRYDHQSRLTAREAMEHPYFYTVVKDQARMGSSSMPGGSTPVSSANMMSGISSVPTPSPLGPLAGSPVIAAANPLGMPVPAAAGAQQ
Sequence of CK2A1 (CK2α/β) (P67870 whole entry partner, species assumed): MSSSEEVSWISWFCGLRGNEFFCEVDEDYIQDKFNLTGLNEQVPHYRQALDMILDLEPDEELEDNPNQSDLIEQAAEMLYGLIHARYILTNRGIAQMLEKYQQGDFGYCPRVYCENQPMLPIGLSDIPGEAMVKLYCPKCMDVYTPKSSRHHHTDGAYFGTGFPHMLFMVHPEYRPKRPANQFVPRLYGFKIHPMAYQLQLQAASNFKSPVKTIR
Method: For example, in vitro protein kinase assays may be conducted with a relevant purified protein kinase and an appropriate synthetic substrate to determine the inhibitory activity of the compounds. […] Reaction mixtures were incubated at 30° C. for 1 hour, and reaction products were captured by binding to phosphocellulose (P81) filter plates. Incorporation of radioactive phosphate into the peptide substrate was determined by liquid scintillation counting.
The inhibitory activity of the instant compounds may also be measured by recombinant CK2 holoenzyme kinase assays. The assays were performed in U-bottom 384-well plates. […] The reaction was initiated by the combination of bacterially expressed, CK2 α/β or CK2 holoenzyme with substrates and test compounds. The reaction was incubated at room temperature for 60 minutes and terminated by adding 30 μl of 35 mM EDTA to each sample. The reaction mixture was analyzed on the Caliper LABCHIP® 3000 (Caliper, Hopkinton, Mass.) by electrophoretic separation of the fluorescent substrate and phosphorylated product. […] Compounds were dissolved at 10 mM in dimethylsulfoxide (DMSO) and evaluated at eleven concentrations. IC50 values were derived by non-linear regression analysis.
For `N#Cc1cc(Nc2nc(NC3CC3)c3ncc(C#N)n3n2)c(Cl)c(N2CCN(C3COC3)C(CF)C2)c1` (racemic) [Example 312, (+/−)2-((2-chloro-5-cyano-3-(3-(fluoromethyl)-4-(oxetan-3-yl)piperazin-1-yl)phenyl)amino)-4-(cyclopropylamino)imidazo[2,1-f][1,2,4]triazine-7-carbonitrile], the IC50 was 0.37 nM.
For `CCNc1nc(Nc2ccc3c(c2)c(C#N)cn3C2CCN([C@H]3CS(=O)(=O)C[C@H]3O)CC2)nn2c(C#N)cnc12` [Example 829, 2-((3-cyano-1-(1-((3R,4S)-4-hydroxy-1,1-dioxidotetrahydrothiophen-3-yl)piperidin-4-yl)-1H-indol-5-yl)amino)-4-(ethylamino)imidazo[2,1-f][1,2,4]triazine-7-carbonitrile], the IC50 stood at 0.72 nM.
For `COC(=O)NC1CCN(c2cc(C#N)cc(Nc3nc(NC4CC4)c4ncc(C#N)n4n3)c2Cl)CC1(C)C` (centres unmarked) [Example 286, methyl (1-(2-chloro-5-cyano-3-((7-cyano-4-(cyclopropylamino)imidazo[2,1-f][1,2,4]triazin-2-yl)amino)phenyl)-3,3-dimethyl-4-piperidinyl)carbamate], the IC50 stood at 4.4 nM.
In the case of `COC(=O)N[C@H]1C[C@@H](O)CN(c2cc(C#N)cc(Nc3nc(NC4CC4)c4ncc(C#N)n4n3)c2Cl)C1` [Example 295, methyl ((3S,5R)-1-(2-chloro-5-cyano-3-((7-cyano-4-(cyclopropylamino)imidazo[2,1-f][1,2,4]triazin-2-yl)amino)phenyl)-5-hydroxy-3-piperidinyl)carbamate], the IC50 came to 1.21 nM.
As to `N#Cc1cc(CNC2COC2)c(Cl)c(Nc2nc(NC3CC3)c3ncc(C#N)n3n2)c1` [Example 479, 2-[(2-chloro-5-cyano-3-{[(oxetan-3-yl)amino]methyl}phenyl)amino]-4-(cyclopropylamino)imidazo[2,1-f][1,2,4]triazine-7-carbonitrile], the IC50 came to 1.07 nM.
As to `C[C@H](N)C(=O)N1CCC(c2cc(C#N)cc(Nc3nc(NC4CC4)c4ncc(C#N)n4n3)c2Cl)CC1` [Example 240, 2-((3-(1-L-alanyl-4-piperidinyl)-2-chloro-5-cyanophenyl)amino)-4-(cyclopropylamino)imidazo[2,1-f][1,2,4]triazine-7-carbonitrile], the IC50 came out at 0.47 nM.
For the compound `CC(=O)N1CC(N2CCN(c3cc(C#N)cc(Nc4nc(NC5CC5)c5ncc(C#N)n5n4)c3Cl)CC2)C1` [Example 480, 2-({3-[4-(1-acetylazetidin-3-yl)piperazin-1-yl]-2-chloro-5-cyanophenyl}amino)-4-(cyclopropylamino)imidazo[2,1-f][1,2,4]triazine-7-carbonitrile], the IC50 was 0.86 nM.
Regarding `N#Cc1cc(Nc2nc(NC3CC3)c3ncc(C#N)n3n2)c(Cl)c(N2CCN([C@H]3C[C@@H](C#N)C3)CC2)c1` [Example 106], the IC50 turned out to be 1.23 nM.
In the case of `N#Cc1cc(Nc2nc(NC3CC3)c3ncc(C#N)n3n2)c(Cl)c(N2CCN(C(CO)CO)CC2)c1` [Example 539, 2-((2-chloro-5-cyano-3-(4-(1,3-dihydroxypropan-2-yl)piperazin-1-yl)phenyl)amino)-4-(cyclopropylamino)imidazo[2,1-f][1,2,4]triazine-7-carbonitrile], the IC50 came out at 0.93 nM.
As to `N#Cc1cc(Nc2nc(NC3CC3)c3ncc(C#N)n3n2)c(Cl)c(C2CCN(CC(O)CF)CC2)c1` (racemic) [Example 380, (+/−)-2-((2-chloro-5-cyano-3-(1-(3-fluoro-2-hydroxypropyl)-4-piperidinyl)phenyl)amino)-4-(cyclopropylamino)imidazo[2,1-f][1,2,4]triazine-7-carbonitrile], the IC50 was found to be 0.65 nM.
With `CCNc1nc(Nc2cc(C#N)cc(N3CC[C@@H](NC(=O)OC)[C@H](OC(=O)C(C)OP(=O)(O)O)C3)c2Cl)nn2c(C#N)cnc12` (mixture of isomers) [Example 339, (+/−)-(3R,4R)-1-(2-chloro-5-cyano-3-((7-cyano-4-(ethylamino)imidazo[2,1-f][1,2,4]triazin-2-yl)amino)phenyl)-4-((methoxycarbonyl)amino)piperidin-3-yl 2-(phosphonooxy)propanoate] the figure was 0.47 nM; with `COC(=O)N[C@H]1CN(C2CN(c3cc(C#N)cc(Nc4nc(NC5CC5)c5ncc(C#N)n5n4)c3Cl)C2)CC1OC` (stereo in doubt) [Example 298, methyl ((3S,4R)-1-(1-(2-chloro-5-cyano-3-((7-cyano-4-(cyclopropylamino)imidazo[2,1-f][1,2,4]triazin-2-yl)amino)phenyl)-3-azetidinyl)-4-methoxy-3-pyrrolidinyl)carbamate], 0.49 nM; with `COCCC(=O)N1CC(N2CCN(c3cc(C#N)cc(Nc4nc(NC5CC5)c5ncc(C#N)n5n4)c3Cl)CC2)C1` [Example 482, 2-[(2-chloro-5-cyano-3-{4-[1-(3-methoxypropanoyl)azetidin-3-yl]piperazin-1-yl}phenyl)amino]-4-(cyclopropylamino)imidazo[2,1-f][1,2,4]triazine-7-carbonitrile], 1.52 nM.
As for `N#Cc1cc(Nc2nc(NC3CC3)c3ncc(C#N)n3n2)c(Cl)c(N2CCN(NCC(N)=O)CC2)c1` [Example 791, 2-((4-(2-chloro-5-cyano-3-((7-cyano-4-(cyclopropylamino)imidazo[2,1-f][1,2,4]triazin-2-yl)amino)phenyl)piperazin-1-yl)amino)acetamide], the IC50 was 1.52 nM.
As to `CN1CCN(c2cc(C#N)cc(Nc3nc(NC4CC4)c4ncc(C#N)n4n3)c2Cl)C(=O)C1` [Example 618, 2-((2-chloro-5-cyano-3-(4-methyl-2-oxopiperazin-1-yl)phenyl)amino)-4-(cyclopropylamino)imidazo[2,1-f][1,2,4]triazine-7-carbonitrile], the IC50 was found to be 2.07 nM.
Regarding `CCNc1nc(Nc2cc(C#N)cc(N3CC[C@@H](NC(=O)OC)[C@@H](N(C)C4COC4)C3)c2Cl)nn2c(C#N)cnc12` [Example 751, methyl ((3S,4R)-1-(2-chloro-5-cyano-3-((7-cyano-4-(ethylamino)imidazo[2,1-f][1,2,4]triazin-2-yl)amino)phenyl)-3-(methyl(oxetan-3-yl)amino)piperidin-4-yl)carbamate], the IC50 was found to be 1.3 nM.
Turning to `CCNC(=O)N[C@H]1CN(c2cc(C#N)cc(Nc3nc(NC4CC4)c4ncc(C#N)n4n3)c2Cl)C[C@H]1OC` (racemic) [Example 32, (+/−) 1-((3S,4R)-1-(2-chloro-5-cyano-3-((7-cyano-4-(cyclopropylamino)imidazo [2,1-f][1,2,4]triazin-2-yl)amino)phenyl)-4-methoxy-3-pyrrolidinyl)-3-ethylurea], the IC50 is 0.8 nM.
With `N#Cc1cc(Nc2nc(NC3CC3)c3ncc(C#N)n3n2)c(Cl)c(N2CCN(C3CN(CC(O)CF)C3)CC2)c1` (centres unmarked) [Example 614, 2-[(2-chloro-5-cyano-3-{4-[1-(3-fluoro-2-hydroxypropyl)azetidin-3-yl]piperazin-1-yl}phenyl)amino]-4-(cyclopropylamino)imidazo [2,1-f][1,2,4]triazine-7-carbonitrile], the IC50 was determined as 2.5 nM.
With `CCNc1nc(Nc2cc(C#N)cc(C3CCN(C[C@H](C)O)CC3)c2Cl)nn2c(C#N)cnc12` [Example 214, 2-((2-chloro-5-cyano-3-(1-((2S)-2-hydroxypropyl)-4-piperidinyl)phenyl)amino)-4-(ethylamino)imidazo[2,1-f][1,2,4]triazine-7-carbonitrile] the figure was 4.55 nM.
For the compound `N#Cc1cc(Nc2nc(NC3CC3)c3ncc(C#N)n3n2)c(Cl)c(C2CCN(C3COC3)CC2)c1` [Example 210, 2-((2-chloro-5-cyano-3-(1-(3-oxetanyl)-4-piperidinyl)phenyl)amino)-4-(cyclopropylamino)imidazo[2,1-f][1,2,4]triazine-7-carbonitrile], the IC50 came out at 0.71 nM.
The same measure for `CN1CCN(c2cc(C#N)cc(Nc3nc(NC4CC4)c4ncc(C#N)n4n3)c2Cl)CC1CN1CC(F)C1` (centres unmarked) [Example 708, 2-[(2-chloro-5-cyano-3-{3-[(3-fluoroazetidin-1-yl)methyl]-4-methylpiperazin-1-yl}phenyl)amino]-4-(cyclopropylamino)imidazo[2,1-f][1,2,4]triazine-7-carbonitrile]: 0.52 nM; for `N#Cc1cc(Nc2nc(NC3CC3)c3ncc(C#N)n3n2)c(Cl)cc1CCCO` [Example 566, 2-((2-chloro-5-cyano-4-(3-hydroxypropyl)phenyl)amino)-4-(cyclopropylamino)imidazo[2,1-f][1,2,4]triazine-7-carbonitrile]: 0.1 nM.
As to `CC(O)CN1CCN(c2cc(C(F)F)cc(Nc3nc(NC4CC4)c4ncc(C#N)n4n3)c2Cl)CC1` (racemic) [Example 249, (+/−) 2-((2-chloro-5-(difluoromethyl)-3-(4-(2-hydroxypropyl)-1-piperazinyl)phenyl)amino)-4-(cyclopropylamino)imidazo[2,1-f][1,2,4]triazine-7-carbonitrile], the IC50 came out at 2.22 nM.
Regarding `N#Cc1cc(Nc2nc(NC3CC3)c3ncc(C#N)n3n2)c(Cl)c(N2CCN(C3CCNC3=O)CC2)c1` (centres unmarked) [Example 581, 2-({2-chloro-5-cyano-3-[4-(2-oxopyrrolidin-3-yl)piperazin-1-yl]phenyl}amino)-4-(cyclopropylamino)imidazo [2,1-f][1,2,4]triazine-7-carbonitrile], the IC50 was 3.59 nM.
The same measure for `COC(=O)N1CCC2CCN(c3cc(C#N)cc(Nc4nc(NC5CC5)c5ncc(C#N)n5n4)c3Cl)CC21` (racemic) [Example 458, (+/−)-methyl 6-(2-chloro-5-cyano-3-((7-cyano-4-(cyclopropylamino)imidazo[2,1-f][1,2,4]triazin-2-yl)amino)phenyl)octahydro-1H-pyrrolo[2,3-c]pyridine-1-carboxylate]: 16.4 nM.
Turning to `N#Cc1cc(Nc2nc(NC3CC3)c3ncc(C#N)n3n2)c(F)c(N2CCN(C3(C#N)COC3)CC2)c1` [Example 555, 2-((5-cyano-3-(4-(3-cyanooxetan-3-yl)piperazin-1-yl)-2-fluorophenyl)amino)-4-(cyclopropylamino)imidazo[2,1-f][1,2,4]triazine-7-carbonitrile], the IC50 was 1.23 nM.

For the origin of these results see US9273057B2 (Bristol-Myers Squibb Company, priority 2012, dated 2016).
